Measurements: patent US20220000870A1, “TREATMENT OF CANCER” (MingSight Pharmaceuticals, Inc., priority 2016, published 2022)

Columns and labels:
TMD8 cells [1] = test: Mouse xenograph model of DLBCL; assay type: in vivo, SCID mice
Protocol: To test the efficacy of Compound A in vivo, TMD8 cells were grown and subcutaneously injected into SCID mice. Large scale suspension culture of TMD8 cells was performed in T250 flasks, where cells were expanded weekly. Animals (n=24) were inoculated with 10×10^6 cells (10×10^6 cells in 100 μL volume of 50% Matrigel®) subcutaneously in the animal's right flank.

HBL1 cells [2] = test: Cell proliferation and survival assay (MTT); assay type: cell-based; conditions: 96 hours, data not shown
HBL1 cells [3] = test: IL-6 assay (ELISA of supernatant); assay type: cell-based; conditions: CD79 mutant, 48 hours, data not shown
circulating lymphocytes = test: Peripheral lymphocyte levels, multiple ascending dose study; assay type: in vivo, human; conditions: healthy humans, 50, 100, 150, 200 mg BID, 14 days
Protocol: Normal, healthy human patients received various doses of Compound A for 14 days of dosing. The dose levels were as follows: cohort 1: 50 mg, BID; cohort 2: 100 mg, BID; cohort 3, 150 mg, BID; and cohort 4, 200 mg BID.

OCI-Ly3 cells [4] = test: Cell proliferation and survival assay (MTT); assay type: cell-based; conditions: 96 hours
Protocol: (§1) TMD8 cells were grown in MEM media supplemented with 10% fetal calf serum (FCS), non-essential vitamin mix, and penicillin-streptomycin antibiotics (pen-strep). HBL1 cells were grown in RPMI-1640 media supplemented with 10% FCS and pen-strep. OCI-Ly3 cells were grown in DMEM media with 15% FCS, non-essential vitamin mix, pen-strep, and 25 mM HEPES buffer. Cells were maintained in suspension culture, fed twice weekly, and split 1:3 approximately every two weeks (TMD8, OCI-Ly3) or weekly (HBL1). Cells were cultured and maintained as described above, with cells always fed on the day prior to assay. Proliferation and survival of cells was quantified using an MTT assay kit according to manufacturer's instructions (Cell Proliferation Kit 1, Roche Diagnostics, Cat. No. 11 465 007 001). Experiments were performed in the same media used by each cell type for growth and maintenance. Cells (5×10^4) were plated in 96 well plates and allowed to grow for 96 hours in the presence of inhibitors. After the exposure period was completed, MTT reagent was added for 3-4 hours. The MTT solubilization reagent was then added to stop the reaction and cells were incubated overnight at 37° C. The plate read the next day according to the kit instructions.

TMD8 cells [5] = test: Cell proliferation and survival assay (MTT); assay type: cell-based; conditions: for Inhibition of cell proliferation and survival: TMD8 cells, MTT, 96 hours
Protocol: as §1

OCI-Ly3 cells [6] = test: IL-6 assay (ELISA of supernatant); assay type: cell-based; conditions: OCI-Ly3 cells lacking activating CD79 mutations, 48 hours
Protocol: (§2) TMD8 cells were grown in MEM media supplemented with 10% fetal calf serum (FCS), non-essential vitamin mix, and penicillin-streptomycin antibiotics (pen-strep). HBL1 cells were grown in RPMI-1640 media supplemented with 10% FCS and pen-strep. OCI-Ly3 cells were grown in DMEM media with 15% FCS, non-essential vitamin mix, pen-strep, and 25 mM HEPES buffer. Cells were maintained in suspension culture, fed twice weekly, and split 1:3 approximately every two weeks (TMD8, OCI-Ly3) or weekly (HBL1).
(§3) Cells were harvested via centrifugation and resuspended twice to rinse the media of any IL-6. Cells were then plated in 96 well plates at 5×10^5 cells per well and exposed to increasing concentrations of Compound A, sotrastaurin, or media containing 0.1% DMSO (negative control). For each cell type, experiments were performed in the media used for growth and maintenance. Cells were allowed to grow for 48 hours after plating in the presence of inhibitors. Following compound exposure, cells were pelleted in the 96 well plate, supernatant was removed, and the concentration of IL-6 in the supernatant was determined using R&D Systems Haman IL-6 Quantikine® ELISA Kit (D6050) according to manufacturer's instructions.

TMD8 cells [7] = test: IL-6 assay (ELISA of supernatant); assay type: cell-based; conditions: for Inhibition of IL-6 production: TMD8 cells, CD79 mutant, 48 hours
Protocol: as §2, §3

Human PKC delta = Human PKC delta (Homo sapiens, UniProt Q05655); test: Inhibition of PKC isoforms, in vitro assay; assay type: biochemical
Source text: The methods for these determinations have been described (Grant, et al. 2010, Eur J Pharmacol. 627:16-25).

[8] = 120 mg/kg BID, SCID mice with TMD8 tumors

Human PKC delta, sequence (Q05655 whole entry, canonical isoform): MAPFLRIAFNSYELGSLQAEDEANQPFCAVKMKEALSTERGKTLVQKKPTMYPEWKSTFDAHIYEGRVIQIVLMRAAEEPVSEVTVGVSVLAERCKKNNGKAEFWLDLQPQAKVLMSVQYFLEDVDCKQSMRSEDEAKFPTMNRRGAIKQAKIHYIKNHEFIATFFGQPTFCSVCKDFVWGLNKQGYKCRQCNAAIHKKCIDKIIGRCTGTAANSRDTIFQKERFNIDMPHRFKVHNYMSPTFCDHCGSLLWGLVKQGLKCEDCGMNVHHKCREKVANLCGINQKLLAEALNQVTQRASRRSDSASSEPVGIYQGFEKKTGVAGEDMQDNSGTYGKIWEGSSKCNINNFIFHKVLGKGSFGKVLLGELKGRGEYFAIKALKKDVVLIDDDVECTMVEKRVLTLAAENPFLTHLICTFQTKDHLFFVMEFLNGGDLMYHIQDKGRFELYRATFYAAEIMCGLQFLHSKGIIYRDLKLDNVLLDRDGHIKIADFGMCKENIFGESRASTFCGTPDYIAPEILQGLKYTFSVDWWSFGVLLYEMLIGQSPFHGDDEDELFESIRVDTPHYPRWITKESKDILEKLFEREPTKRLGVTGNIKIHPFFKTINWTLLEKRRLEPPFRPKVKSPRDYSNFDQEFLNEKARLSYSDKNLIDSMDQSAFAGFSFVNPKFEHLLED

Cc1ncc(F)c(Nc2n[nH]c3c2CN(C(=O)N2C[C@@H](C)N(CC4CCOCC4)C[C@@H]2C)C3(C)C)n1 [Compound A, 5-{[(2S,5R)-2,5-dimethyl-4-(tetrahydro-2H-pyran-4-ylmethyl)piperazin-1-yl]carbonyl}-N-(5-fluoro-2-methylpyrimidin-4-yl)-6,6-dimethyl-1,4,5,6-tetrahydropyrrolo[3,4-c]pyrazol-3-amine]
Mean weight of vehicle treated group greater than Compound A treated animals (TMD8 cells [1]; 120 mg/kg BID): 1.8 g | Body weight change from day 24-28 (TMD8 cells [1]; [8]): no increase in body weight | Body weight, first 10 days of treatment (TMD8 cells [1]; [8]): steady, slow increase | Tumor growth (in words) (TMD8 cells [1]; study days 20 to 28, 120 mg/kg BID): no appreciable amounts of tumor growth | Inhibition of cell proliferation and survival (HBL1 cells [2]): dose-dependent inhibition | Inhibition of IL-6 production (HBL1 cells [3]): dose-dependent inhibition | Number of circulating lymphocytes (circulating lymphocytes): dose dependent increase | Inhibition of cell proliferation and survival (OCI-Ly3 cells [4]): not affected by either compound except at the highest doses tested | Potency in cell proliferation assay compared to sotrastaurin (TMD8 cells [5]): modestly more potent | Inhibition of cell proliferation and survival (TMD8 cells [5]): dose-dependent inhibition | Inhibition of IL-6 production (OCI-Ly3 cells [6]): not affected | Potency in IL-6 assay compared to sotrastaurin (TMD8 cells [7]): slightly more potent | Inhibition of IL-6 production (TMD8 cells [7]): dose-dependent inhibition | Inhibition of PKC delta (in words) (Human PKC delta): does not inhibit PKC delta to any appreciable degree

CN1CCN(c2nc(C3=C(c4c[nH]c5ccccc45)C(=O)NC3=O)c3ccccc3n2)CC1 [sotrastaurin, reference compound]
Inhibition of cell proliferation and survival (OCI-Ly3 cells [4]): not affected by either compound except at the highest doses tested | Inhibition of cell proliferation and survival (TMD8 cells [5]): dose dependent inhibition | Inhibition of IL-6 production (OCI-Ly3 cells [6]): not affected | Inhibition of IL-6 production (TMD8 cells [7]): dose dependent inhibition
